One test deals with ChAT. On the set-up: method as in literature. As to conditions: ChAT inhibition, experimentally determined value taken from literature; ref literature; cited from earlier work.
A further test concerns the target T1, recombinant human ChAT (Homo sapiens, UniProt P28329).
T1 construct: His6 (N); made in house; host or cells: E. coli BL21 Rosetta2
T1 sequence (P28329 1-630 isoform P28329-3): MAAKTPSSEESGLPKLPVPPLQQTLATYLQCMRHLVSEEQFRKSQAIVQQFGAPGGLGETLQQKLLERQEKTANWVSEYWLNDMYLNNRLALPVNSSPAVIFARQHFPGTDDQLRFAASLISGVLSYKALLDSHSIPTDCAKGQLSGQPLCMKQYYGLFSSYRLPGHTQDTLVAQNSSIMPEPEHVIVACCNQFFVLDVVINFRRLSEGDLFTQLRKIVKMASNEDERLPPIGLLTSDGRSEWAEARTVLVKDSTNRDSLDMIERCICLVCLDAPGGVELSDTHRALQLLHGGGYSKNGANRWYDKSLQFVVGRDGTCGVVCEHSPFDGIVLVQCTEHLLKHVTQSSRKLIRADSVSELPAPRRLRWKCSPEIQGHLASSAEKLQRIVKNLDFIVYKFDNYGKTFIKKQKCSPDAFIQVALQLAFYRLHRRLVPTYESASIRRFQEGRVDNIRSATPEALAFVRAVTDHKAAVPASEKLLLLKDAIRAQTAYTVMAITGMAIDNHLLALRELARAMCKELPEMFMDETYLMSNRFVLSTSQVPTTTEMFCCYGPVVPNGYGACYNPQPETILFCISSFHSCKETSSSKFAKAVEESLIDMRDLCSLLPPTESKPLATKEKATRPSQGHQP
Nature of the test: Colorimetric ChAT assay with recombinant human ChAT protein. The class given is biochemical. As to the method:
ChAT activity was measured with a new colorimetric assay as described previously, using recombinant ChAT protein. Briefly, 20 μL/wells of 1.5 μg/ml of the recombinant ChAT was incubated with 20 μL/well of different concentrations of α-NETA for 30 minutes at room temperature in dilution buffer (10 mM Tris-HCl, pH 7.4, 150 mM NaCl, 1.0 mM EDTA, 0.05% (v/v) Triton X-100). […]
Then 50 μl of a cocktail-B [phosphate buffered saline, containing 0.93 U/ml choline oxidase (C5896, Sigma-Aldrich), 1/5000 U streptavidin-horseradish peroxidase, 6.3 mM phenol, and 3 mM 4-aminoantipyrine (A4382, Sigma-Aldrich)] was added to each sample including the standards. Absorbance was then monitored using a microplate spectrophotometer reader (Infinite M1000, Tecan) at 500 nm wavelength. ChAT activity (nmol/min/mg of recombinant protein) was calculated according to the following formula: ChAT activity [ChBL-ChS]/t/m, where ChBL is the measured number of mole of choline in control wells lacking the inhibitor and ChAT, ChS is the measured number of mole of choline in the sample wells, the t is the incubation time and m is the mass of ChAT protein added per sample well. […]

The next test has as its target T2, AChE (Homo sapiens, UniProt P22303).
T2 construct: purchased Sigma
Kind of test: Modified Ellman's colorimetric assay, AChE activity. The class given is biochemical. As to the method:
(§1) A modified version of Ellman’s colorimetric assay was used for the enzymatic activity of BuChE and AChE, as described previously. For BuChE activity, 50 μL/well of a 1:400 diluted solution of a pooled human plasma sample was used. For AChE activity, the 1:400 diluted pooled human plasma samples had been supplied with 50 ng/ml of purified AChE protein (Sigma). These were preincubated with 50 μL/wells of different concentrations of α-NETA for 30 minutes at room temperature. Then, 100 μL of a cocktail (Na/K phosphate buffer, containing 5,5′-dithiobis(2-nitrobenzoic acid) (DTNB, final concentration 0.4 mM) and butyrylthiocholine iodide (Sigma, final concentration 5 mM) or acetylthiocholine iodide (Sigma, final concentration 0.5 mM) were added and the changes in absorbance was monitored at one minutes intervals at 412 nm wavelength. For the AChE activity, the cocktail also contained the selective BuChE inhibitor ethopropazine (Sigma, final concentration 0.1 mM).
For orientation: In Ellman's method for cholinesterases, released thiocholine reacts with DTNB.

For another test, the target named is T3, BuChE (Homo sapiens, UniProt P06276).
T3 construct: a 1:400 diluted solution of a pooled human plasma sample was used; from tissue; host or cells: pooled human plasma
T3 sequence (P06276 29-602): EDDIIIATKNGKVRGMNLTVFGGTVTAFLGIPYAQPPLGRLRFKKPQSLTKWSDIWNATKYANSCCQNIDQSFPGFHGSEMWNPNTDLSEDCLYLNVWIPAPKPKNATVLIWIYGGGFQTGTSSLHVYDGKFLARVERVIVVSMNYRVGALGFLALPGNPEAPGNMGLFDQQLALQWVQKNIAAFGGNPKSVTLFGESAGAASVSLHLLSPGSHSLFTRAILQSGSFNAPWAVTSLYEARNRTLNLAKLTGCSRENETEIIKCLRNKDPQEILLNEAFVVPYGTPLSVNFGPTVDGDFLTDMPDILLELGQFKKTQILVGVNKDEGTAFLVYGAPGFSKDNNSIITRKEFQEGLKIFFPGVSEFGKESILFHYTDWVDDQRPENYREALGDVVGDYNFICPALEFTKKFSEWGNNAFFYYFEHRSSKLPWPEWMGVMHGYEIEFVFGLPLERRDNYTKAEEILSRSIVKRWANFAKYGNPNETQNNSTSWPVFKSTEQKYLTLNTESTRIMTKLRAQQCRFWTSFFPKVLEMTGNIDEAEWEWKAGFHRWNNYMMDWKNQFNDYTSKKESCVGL
Kind of test: biochemical. The protocol: as §1

Test [1] deals with purified human placental ChAT. On the set-up: method as in PMID 3361452. The settings on record: cited from earlier work.

Several values for one entry are separate records, joined by “and”; a condition that tells them apart may be missing. Equal entries are not always repeated.

T2 sequence (P22303 32-614): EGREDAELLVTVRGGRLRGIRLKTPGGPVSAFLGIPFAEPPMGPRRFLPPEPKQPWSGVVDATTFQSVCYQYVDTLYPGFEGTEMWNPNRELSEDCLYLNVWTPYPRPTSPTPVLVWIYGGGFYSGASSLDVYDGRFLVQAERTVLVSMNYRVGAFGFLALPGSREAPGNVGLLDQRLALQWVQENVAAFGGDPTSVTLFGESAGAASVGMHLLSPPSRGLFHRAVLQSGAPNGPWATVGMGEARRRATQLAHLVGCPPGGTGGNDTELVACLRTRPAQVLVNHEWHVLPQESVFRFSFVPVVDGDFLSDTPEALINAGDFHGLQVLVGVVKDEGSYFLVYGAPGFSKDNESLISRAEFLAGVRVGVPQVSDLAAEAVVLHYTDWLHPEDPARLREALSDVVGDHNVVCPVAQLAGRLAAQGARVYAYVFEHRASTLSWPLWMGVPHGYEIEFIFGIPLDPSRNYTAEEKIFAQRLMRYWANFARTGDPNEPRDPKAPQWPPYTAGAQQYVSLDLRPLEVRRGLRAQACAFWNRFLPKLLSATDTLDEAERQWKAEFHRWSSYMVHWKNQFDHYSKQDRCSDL

Take `C[n+]1ccc(/C=C/c2ccc(Cl)c(Cl)c2)cc1` [Compound 5]: the “Actual pIC50 / Observed pIC50” value with ChAT is 5.48.

As for `C[n+]1ccc(/C=C/c2cccc(Br)c2)cc1` [Compound 2], the “Actual pIC50 / Observed pIC50” value in the test with ChAT is listed as 5.83.

Consider `Cc1c[n+](C)ccc1/C=C/c1ccc(Cl)c(Cl)c1` [Compound 15], for which the “Actual pIC50 / Observed pIC50” value in the test with ChAT is on record as 5.77.

`Cc1c[n+](C)ccc1/C=C/c1cccc2ccccc12` [Compound 13]: the “Actual pIC50 / Observed pIC50” value in the test with ChAT is 6.40.

Take `OCC[n+]1ccc(/C=C/c2ccccc2)c2ccccc21` [Compound 25]: the “Actual pIC50 / Observed pIC50” value with ChAT is 5.54.

For `C[n+]1ccc(/C=C/c2ccccc2Cl)cc1` [Compound 10], the “Actual pIC50 / Observed pIC50” value in the test on ChAT is on record as 4.56.

On to `C[n+]1ccc(/C=C/c2ccc(Br)cc2)cc1` [Compound 4], for which the “Actual pIC50 / Observed pIC50” value in the test with ChAT was 5.59.

Regarding `C[n+]1ccc(/C=C/c2cccc([N+](=O)[O-])c2)cc1` [Compound 11], the “Actual pIC50 / Observed pIC50” value in the test on ChAT is 3.83.

As a reminder, the IC50 is the concentration that gives 50% inhibition. Usually inhibition stands for the share of the control response that was lost under treatment. Low readings indicate a response near the control, high ones a response far below the control. For the compound `C[N+](C)(C)CCC(=O)c1cccc2ccccc12.[I-]` [α-NETA, 2-(α-naphthoyl) ethyltrimethylammonium iodide], the “higher potency as ChAT inhibitor in this system than reported” value at recombinant human ChAT (IC50 88 nM versus reported ~9 μM) is on record as ~ 100 folds. The IC50 is ~0.088 µM and 0.088 µM at recombinant human ChAT (recombinant human ChAT, 30 min preincubation); ~30 µM and 34.2 µM against AChE (30 min preincubation); ~30 µM and 33.3 µM against BuChE (pooled human plasma, 30 min preincubation); around 9 µM in test [1] (read-out: IC50 (reported, ChAT)). On AChE (at a concentration of 10 μM), the inhibition at 10 µM was 10%. The “selectivity for ChAT compared to AChE” value at AChE (based on IC50 ratios) was 388 fold and ~ 388 fold. On BuChE (at a concentration of 3 μM), this compound had an inhibition at 3 µM of 10%. Moreover, on BuChE (based on IC50 ratios), the “selectivity for ChAT relative to BuChE” value is on record as ~ 378 fold. For the same compound, in test [1], the “Observed pIC50 (reported pIC50)” value was 5.05.

Take `C[n+]1ccc(/C=C/c2ccc(F)cc2)cc1` [Compound 9]: the “Actual pIC50 / Observed pIC50” value in the test with ChAT was 4.68.

Turning to `Cc1c[n+](C)ccc1/C=C/c1ccccc1Cl` [Compound 17], the “Actual pIC50 / Observed pIC50” value with ChAT is listed as 4.77.

For the compound `C[n+]1ccc(/C=C/c2ccc([N+](=O)[O-])cc2)cc1` [Compound 12], the “Actual pIC50 / Observed pIC50” value in the test with ChAT was 3.70.

Consider `C[n+]1ccc(/C=C/c2ccccc2)cc1` [Compound 7], for which the “Actual pIC50 / Observed pIC50” value in the test on ChAT is listed as 4.83.

On to `Cc1c[n+](C)ccc1/C=C/c1ccccc1` [Compound 16], for which the “Actual pIC50 / Observed pIC50” value in the test on ChAT is recorded as 5.30.

`OCC[n+]1ccc(/C=C/c2cccc3ccccc23)c2ccccc21` [Compound 24]: the “Actual pIC50 / Observed pIC50” value in the test on ChAT was 6.28.

In the case of `Cc1c[n+](C)ccc1/C=C/c1c[nH]c2ccccc12` [Compound 18], in the test on ChAT, the “Actual pIC50 / Observed pIC50” value is listed as 4.41.

In the case of `C[n+]1ccc(/C=C/c2cccc(Cl)c2)cc1` [Compound 3], the “Actual pIC50 / Observed pIC50” value in the test on ChAT was 5.64.

For `C[n+]1ccc(/C=C/c2ccc(Cl)cc2)cc1` [Compound 6], in the test with ChAT, the “Actual pIC50 / Observed pIC50” value is given as 5.16.

Turning to `C[n+]1ccc(/C=C/c2cccnc2)c2ccccc21` [Compound 23], in the test on ChAT, the “Actual pIC50 / Observed pIC50” value was 3.22.

Turning to `C[n+]1ccc(/C=C/c2cccc3ccccc23)cc1` [Compound 1], the “Actual pIC50 / Observed pIC50” value with ChAT is given as 6.33.

For the compound `OCC[n+]1ccc(/C=C/c2cccc(Cl)c2)cc1` [Compound 20], the “Actual pIC50 / Observed pIC50” value in the test with ChAT is listed as 5.62.

`OCC[n+]1ccc(/C=C/c2cccc(Br)c2)cc1` [Compound 19]: the “Actual pIC50 / Observed pIC50” value in the test with ChAT is 5.38.

With `C[n+]1ccc(/C=C/c2cccs2)c2ccccc21` [Compound 22], the “Actual pIC50 / Observed pIC50” value in the test on ChAT was 3.60.

On to `C[n+]1ccc(/C=C/c2ccccc2)c2ccccc21` [Compound 21], for which the “Actual pIC50 / Observed pIC50” value in the test with ChAT is 5.46.

As for `Cc1c[n+](C)ccc1/C=C/c1cccc(Cl)c1` [Compound 14], the “Actual pIC50 / Observed pIC50” value with ChAT is 5.80.

Regarding `Cc1ccc(/C=C/c2cc[n+](C)cc2)cc1` [Compound 8], the “Actual pIC50 / Observed pIC50” value in the test with ChAT is 4.70.
